Patent US20240148040A1, “METHODS OF REDUCING EXERCISE-INDUCED INJURY OR ENHANCING MUSCLE RECOVERY AFTER EXERCISE” (intrinsic Medicine, Inc., priority 2020, published 2024)

Test system: CEBPB expression in LPS-stimulated THP-1 cells
Assay: CEBPB expression in nascent RNAs of LPS-stimulated THP-1 cells (nascent RNA sequencing)
Type: cell-based
Settings: 10 ng/mL LPS and 250 μM 2′FL, CEBPB enhanced and upregulated
Method: THP-1 Cells were treated with 10 ng/mL LPS or 10 ng/mL LPS and 250 μM 2′F and extracted for nascent RNAs at 30 min and 24 hours. The nascent RNAs were sequenced and analyzed as described in Azofeifa et al. (2018), Genome Res. 28: 334-344; the contents of which are expressly incorporated by reference herein.

CC1O[C@@H](OC2[C@H](O[C@H]3C(O)C(O)C(O)O[C@H]3CO)OC(CO)[C@H](O)[C@@H]2O)C(O)[C@@H](O)[C@@H]1O (some centres unmarked) [2′FL, 2′-fucosyllactose]
CEBPB maximum enrichment score (nascent RNAs, 2′FL+LPS treated cells versus LPS alone) (30 min): 40 | CEBPB maximum enrichment score (nascent RNAs, 2′FL+LPS treated cells versus LPS alone) (24 hours): 20
